# From patent US10548894B2, “Combination therapy” (Array BioPharma Inc., priority 2013, dated 2020)
# Key:
# [1] = system: six melanoma T1799 mutant BRAF cell lines; test: CellTiter-Glo proliferation assay, panel summary; type: cell-based; conditions: absence of FGF2, read-out: IC50 values, range over cell lines
# Procedure: (§1) All cell lines were purchased from ATTC (SK-MEL-5, SK-MEL-24, UACC-62, COLO 741, COLO-800, WM-266-4, Colo205, LS411N, SW 1417), ECACC (MDST8), DSMZ (CL-34) and NCI (LOX IMVI). […] Cell lines were cultured in 37° C. and 5% CO2 incubator and expanded in T-75 flasks. In all cases cells were thawed from frozen stocks, expanded through passage using 1:3 dilutions, counted and assessed for viability using a ViCell counter (Beckman-Coulter), prior to plating in 96-well or 6-well plates. To split and expand cell lines, cells were dislodged from flasks using 0.25% Trypsin-EDTA (GIBCO, Catalog number 25200). All cell lines were determined to be free of mycoplasma contamination as determined by a PCR detection methodology performed at Idexx Radii (Columbia, Mo., USA) and correctly identified by detection of a panel of SNPs. […]
# (§2) For CellTiter-Glo™ assays, cells were dispensed into tissue culture treated 96-well plates (Costar, catalog number 3904) with a final volume of 80 μL of medium and at density of 3000 cells per well. […] Plates were incubated for 72 hrs and the effects of compounds on cell proliferation was determined using the CellTiter-Glo™ Luminescent Cell Viability Assay (CTG, Promega) and a Victor™ X4 plate reader (Perkin Elmer). […] Cells were continuously monitored every two hours for seven days with the xCELLigence real-time impedance based cell analyzer. […]
# [2] = system: five CRC-derived T1799 mutant BRAF cell lines; test: CellTiter-Glo proliferation assay, panel summary; type: cell-based; conditions: absence of FGF2, read-out: IC50 values, range over cell lines
# Procedure: as §1, §2
# [3] = Clinical dose finding and tolerability (RP2D/MTD) in patients; type: in vivo
# From the text: The selection of the starting dose follows the ICH S9 guidelines for choosing a starting a dose for a first-in-human trial conducted in patients with cancer, and is shown in Table 6-2.
# Table 3 describes the starting doses and the provisional dose levels of study treatments for the combinations that may be evaluated during this trial. Additional dose levels not currently specified may be enrolled and additional patients may be enrolled at a dose level already tested if such changes are deemed necessary to provide optimal safety and tolerability, pharmacokinetic, and pharmacodynamic data.
# [4] = system: HMEX1906 primary melanoma model (HMEX1906-R5); test: Efficacy in HMEX1906-R5 primary melanoma model resistant to Compound of Formula (I); type: in vivo; conditions: PO; Compound C 250 mg/kg qd×21; Compound of Formula (I) 5 mg/kg bid×21
# Procedure: Objective: To evaluate the efficacy of the combination of the Compound of Formula (I) and the CDK 4 inhibitor Compound C in the HMEX1906 primary melanoma model that is grown in the presence of and is resistant to 5 mg/kg the Compound of Formula (I) (HMEX1906-R5)
# Drug formulation: Compound C is formulated in 0.5% MC/0.5% Tween80 and the Compound of Formula (I) is formulated in 20% PEG300/3% ETPGS.
# Tumors are chopped/minced into cell line like suspension (tumors homogenized). 7 mL of matrigel added and 1.5 mL of HBSS. Suspension warmed in palm until Matrigel is thick and implanted with a 18G needle s.c right flank of female nude mice.
# The mice were assigned to the following groups at 18 days post implant with an average tumor volume of 266 mm^3 and average body weight of 25 grams.
# Groups: 10 mice/group, route PO, dose volume 0.2 mL
# Group 1: Vehicle, 0 mg/kg bid×14
# Group 2: Compound C, 250 mg/kg qd×21
# Group 3: Compound of Formula (I), 5 mg/kg bid×21
# Group 4: Compound C 250 mg/kg qd×21+Compound of Formula (I) 5 mg/kg bid×21
compound,measurement,setting,value
COC(=O)N[C@@H](C)CNc1nccc(-c2cn(C(C)C)nc2-c2cc(Cl)cc(NS(C)(=O)=O)c2F)n1 [Compound of Formula (I)],IC50,[1],3 to 470 nM
same,IC50,[2],4 to 185 nM
same,observed adverse events,"[3]; in clinic, tested at up to 700 mg QD",reversible and manageable
same,RP2D (recommended phase II dose),"[3]; single agent, patients",450 mg QD
same,Mean change of body weight,[4],3.5 ± 1.1 % ± SEM
same,Mean change of tumor volume,[4],807 ± 106 mm3 ± SEM
same,Mean change of tumor volume vs control (T/C),[4],39%
same,Survival (Survivors/Total),[4],10/10
